Non-standard residues stand in square brackets, D forms with d. Residues, ends and D or L forms follow the SMILES beside them. *: point of attachment. Myristoyl = CCCCCCCCCCCCCC(=O)*

Common to all, as to format: biochemical, E. coli
For series [1], the system named is CCCC(=O)N[C@H](CC(N)=O)C(=O)N[C@@H](C)C(=O)OC. Put plainly: In vitro kinetics of ClbPFL-mediated cleavage of substrates, o-phthaldialdehyde (OPA) derivatization of L-alanine product with fluorescence detection (FIGS. 2B, 10, 11). Conditions: pH 8.0. Here is the method:
(§1) The top graph of FIG. 2A depicts LC-MS detection of the prodrug scaffold ([M+H]^+: 343.2597 m/z) released by the hydrolysis of (1) by ClbP in vitro. Reactions were carried out in 50 mM Tris pH 8.0, 200 mM NaCl, 0.1 μM enzyme. 0.02% w/v DDM was added for all reactions involving full-length ClbP (Error bars are SD, n=3). The bottom graph of FIG. 2B depicts kinetic analysis of ClbP acting on synthetic precolibactin-mimic substrate (1). Note that this substrate is insoluble above 200 μM under assay conditions. Rates were calculated by quenching reactions in 1-minute intervals in methanol and quantifying the amount of substrate cleaved by derivatization of the L-alanine product with o-phthaldialdehye (OPA) and fluorescence detection (see Examples) (Error bars are SD, n=3). Substrate is insoluble above 200 μM under assay conditions. All kinetics experiments are averages of 3 independent replicates, reactions were carried out in 50 mM Sodium Phosphate pH 8.0, 200 mM NaCl, 0.02% w/v DDM, 0.1 μM enzyme. The bottom graph of FIG. 2B depicts the approach and substrates sampled in this SAR study. All kinetics experiments are averages of 3 independent replicates, reactions were carried out in 50 mM Sodium Phosphate pH 8.0, 200 mM NaCl, 0.02% w/v DDM, 0.1 μM ClbP-FL (full length) (also referred to herein as ClbPFL). All errors are ±SD.
(§2) FIGS. 10A-10C depict the kinetics of ClbPFL-mediated cleavage of substrates (FIG. 10A) 2, (FIG. 10B) 3, and (FIG. 10C) 4. Each data point is an average of 3 biological replicates with error bars representing 1 SD. Solid lines are non-linear regression fits of data points to the Michaelis-Menten model.
(§3) FIG. 11 depicts the kinetic parameters for substrates 2, 3, and 4. […]
(§4) To determine the key features for substrate recognition by full-length ClbP, we undertook a structure-activity-relationship (SAR) focusing on three key regions of the substrate. […] Using a higher-throughput fluorescence derivatization assay, we determined kinetic parameters for several of these substrates (FIG. 2B). […]

Series [2] relates to CCCCCCCCCCCCCC(=O)N[C@H](CC(N)=O)C(=O)N[C@@H](C)C(=O)OC. The description is as above. Conditions: pH 8.0. As to the method: as §1, §2, §3, §4
The subject of series [3] is COC(=O)[C@H](C)NC(=O)[C@@H](CC(N)=O)NC(=O)CCCc1ccccc1. Described as above. Conditions: pH 8.0. Here is the method:
as §1, §2, §3, §4

For series [4], the system named is CCCCCCCCCCCCCC(=O)N[C@H](CC(N)=O)C(=O)N[C@@H](C)C(=O)OC. The series can be described thus: Kinetics of ClbPFL-mediated cleavage of substrates 1 and 2 (FIG. 8). Conditions: pH 8.0. An excerpt: (§5) FIG. 8 depicts the kinetics of ClbPFL-mediated cleavage of substrates 1 and 2. Each data point is an average of 3 biological replicates with error bars representing 1 SD. Solid lines are non-linear regression fits of data points to the Michaelis-Menten equation.
(§6) As used herein “ClbP” or “colibactin P” refers to a membrane bound periplasmic peptidase that cleaves an N-acyl-D-asparagine motif (the ‘prodrug scaffold’) from the N-terminus of precolibactin to liberate the active colibactin (FIG. 1). The sequences of ClbP are known in the art, e.g., the polypeptide sequence is available in the Uniprot database as accession number Q0P7K6 (SEQ ID NO: 1).
(§7) We obtained purified enzyme by separating the cell components using ultracentrifugation, solubilizing the membranes in an n-dodecyl-β-D-maltoside (DDM)-containing buffer, and per¬forming immobilized metal affinity chromatography. Because the structure of precolibactin has not yet been fully elucidated, we tested purified ClbPFL against a variety of synthetic precolibactin analogues. […] We chose substrate 2 for a more detailed structure—activity relationship (SAR) study. […]

Series [5] deals with CCCCCCCCCCCCCC(=O)N[C@H](CC(N)=O)C(=O)N[C@@H](C)CCC(=O)CC(=O)NC1(C(=O)O)CC1. Described as above. Conditions: pH 8.0.
Description: as §5, §6, §7

Series [6] has as its system ClbPFL (full-length ClbP). Put plainly: In vitro cleavage of synthetic substrates by ClbPFL, LC-MS detection. Conditions: for cleavage by ClbPFL in vitro: LC-MS detection of cleavage product. As to the method: as §1
Optical densities of E. coli cultures were determined with a DU 730 Life Sciences UV/Vis spectrophotometer (Beckman Coulter, Indianapolis, Ind.) by measuring absorbance at 600 nm. Ultracentrifugation was performed on a Beckman-Coulter Optima XE-90 Ultracentrifuge fitted with a type 45 Ti rotor in 70 mL polycarbonate tubes. Solvents and formic acid used for LC-MS were B & J Brand High Purity Solvents (Honeywell Research Chemicals). High-resolution LC-MS analyses of enzyme assays and synthetic compounds were performed on an Agilent 6530 Q-TOF Mass Spectrometer fitted with a dual-spray electrospray ionization (ESI) source. The capillary voltage was set to 3.5 kV, the fragmentor voltage to 175 V, the skimmer voltage to 65 V, and the Oct 1 RF to 750 V. The drying gas temperature was maintained at 275° C. with a flow rate of 8 L/min and a nebulizer pressure of 35 psi. A standard calibrant mix was introduced continuously during all experiments via the dual-spray ESI source. For analytical liquid chromatography, unless otherwise noted, experiments were performed using an Agilent Technologies 1200 series LC on a Hypersil GOLDaq™ C18 reverse phase column (50×3 mm, Thermo Scientific) with the following elution conditions: a gradient from 35% solvent A:65% solvent B to 100% solvent A over 5 minutes, holding at 100% A for 2 minutes, followed by a gradient back to 35% solvent A over 1 minute and holding at 35% solvent A for 3.5 minutes (solvent A: acetonitrile+0.1% formic acid; solvent B: water+0.1% formic acid; flow rate=0.4 mL/minute; injection volume=10 μL). All experiments were performed in positive ion mode, and the masses detected corresponded to [M+H]+ ions unless otherwise noted. Masses were found within 5 ppm of the expected [M+H]+ masses.
For all in vitro assays involving ClbPFL and ClbFL-S95A “Tris assay buffer” refers to a buffer composed of 50 mM Tris, 200 mM NaCl, 0.02% w/v DDM, pH 8.0. Likewise, “phosphate assay buffer” refers to 50 mM sodium phosphate, 200 mM NaCl, 0.02% w/v DDM, pH 8.0.

Series [7] has as its system ClbPFL-S95A. Put plainly: In vitro cleavage of synthetic substrates by inactive mutant, LC-MS detection. As to the method: as §1
(§8) Optical densities of E. coli cultures were determined with a DU 730 Life Sciences UV/Vis spectrophotometer (Beckman Coulter, Indianapolis, Ind.) by measuring absorbance at 600 nm. Ultracentrifugation was performed on a Beckman-Coulter Optima XE-90 Ultracentrifuge fitted with a type 45 Ti rotor in 70 mL polycarbonate tubes. Solvents and formic acid used for LC-MS were B & J Brand High Purity Solvents (Honeywell Research Chemicals). High-resolution LC-MS analyses of enzyme assays and synthetic compounds were performed on an Agilent 6530 Q-TOF Mass Spectrometer fitted with a dual-spray electrospray ionization (ESI) source. […] All experiments were performed in positive ion mode, and the masses detected corresponded to [M+H]+ ions unless otherwise noted. […]

The subject of series [8] is ClbPpep. The series can be described thus: In vitro cleavage of synthetic substrates by isolated peptidase domain, LC-MS detection. As to the method: as §1, §8
Series [9] has as its system ClbPFL. Put plainly: In vitro kinetics assay with ClbPFL (o-phthaldialdehyde derivatization). Here is the method:
In vitro kinetics assays with ClbPFL (comparison of substrates 2, 3, and 4 using o-phthaldialdehyde derivatization): Assays were run in triplicate in 1.5 mL deep-well plates. ClbPFL-CHis10 was defrosted from −80° C. stocks on ice, then buffer exchanged into phosphate assay buffer using Zeba Spin 40K MWCO desalting columns (ThermoFisher Scientific). The enzyme was then diluted to 0.6 μM in phosphate assay buffer and 50 μL of this stock was deposited in the appropriate wells. The substrate of interest was prepared in a 2-fold dilution series in phosphate assay buffer. Reactions were initiated by the addition of 250 μL of substrate stock to each assay well to a final concentration of 0.1 μM ClbP, 12.5-200 μM substrate, 3% DMSO and incubated at 25° C. Reaction mixtures were pipetted briefly to mix. […] 50 μL of each supernatant from the quenched reactions and standard curves were then transferred to the appropriate wells, pipetted once to mix, and then fluorescence was immediately measured on a plate reader (Bio-Tek Synergy HTX multimode plate reader, measurement settings −360/40 nm excitation filter, 440/20 nm emission filter, detector gain: 35). Fluorescence was measured every 30 seconds for 10 minutes and the maximum value achieved for each well was used for calculations. […]

In the case of “ClbPFL (full-length ClbP, ClbPFL-CHis10) (Escherichia coli)”, the Km is given as 680 ± 470 µM in series [1]; 130 ± 26 µM in series [2]; 246 ± 70 µM in [3]; 75 ± 23 µM in [4]; 16 ± 2 µM in series [5].

For `CCCCCCCCCCCCCC(=O)N[C@@H](CC(N)=O)C(=O)N[C@@H](C)C(=O)OC` [(7)] (Myristoyl-Asn-Ala-OMe), the “cleavage by ClbPFL in vitro” value in [6] is reported as “no cleavage products were detected”.

`CCCCCCCCCCCCCC(=O)N[C@H](CC(N)=O)C(=O)N[C@@H](C)CCC(=O)CC(=O)NC1(C(=O)O)CC1` [Compound 1]: in series [6], the “cleavage by ClbPFL in vitro” value was “rapidly in vitro”. Further, the “cleavage by ClbPFL-S95A in vitro” value in [7] is listed as “no activity”. Moreover, the “cleavage by ClbPpep in vitro” value in [8] is listed as “no activity”. Further, the “kinetic parameters / hydrolysis efficiency compared with the reference substrate” value in [9] was “comparable”.

Take `CCCCCCCCCCCCCC(=O)N[C@H](CCC(N)=O)C(=O)N[C@@H](C)C(=O)OC` [(8)] (Myristoyl-[dQ]-Ala-OMe): the “cleavage by ClbPFL in vitro” value in series [6] is reported as “no cleavage products were detected”.

Take `CCCCCCCCCCCCCC(=O)N[C@H](CC(=O)O)C(=O)N[C@@H](C)C(=O)OC` [(6)] (Myristoyl-[dD]-Ala-OMe): in series [6], the “cleavage by ClbPFL in vitro” value was “cleaved in low amounts”. In [6] (LC-MS, relative to (1)), the “amount cleaved by ClbPFL, fold less than (1)” value is listed as roughly 100 fold.

Usually Km stands for the concentration of substrate that gives half-maximal velocity.

For the origin of these results see patent US11040951B2, “Methods and compositions relating to genotoxin colibactin” (PRESIDENT AND FELLOWS OF HARVARD COLLEGE, priority 2018, dated 2021).
